Assay results: paper PMC10222328 (Pharmaceuticals, 2023)

Experiments:
[1] = biological target: T1, COX-2 (Homo sapiens, UniProt P35354); test: Fluorometric COX-2 inhibitor screening kit; type: biochemical; conditions: at 10 µM; mean ± standard error of two measurements; read-out: COX-2 Percent of Inhibition
T1 construct: purchased Abcam, UK
T1 sequence (P35354 18-604): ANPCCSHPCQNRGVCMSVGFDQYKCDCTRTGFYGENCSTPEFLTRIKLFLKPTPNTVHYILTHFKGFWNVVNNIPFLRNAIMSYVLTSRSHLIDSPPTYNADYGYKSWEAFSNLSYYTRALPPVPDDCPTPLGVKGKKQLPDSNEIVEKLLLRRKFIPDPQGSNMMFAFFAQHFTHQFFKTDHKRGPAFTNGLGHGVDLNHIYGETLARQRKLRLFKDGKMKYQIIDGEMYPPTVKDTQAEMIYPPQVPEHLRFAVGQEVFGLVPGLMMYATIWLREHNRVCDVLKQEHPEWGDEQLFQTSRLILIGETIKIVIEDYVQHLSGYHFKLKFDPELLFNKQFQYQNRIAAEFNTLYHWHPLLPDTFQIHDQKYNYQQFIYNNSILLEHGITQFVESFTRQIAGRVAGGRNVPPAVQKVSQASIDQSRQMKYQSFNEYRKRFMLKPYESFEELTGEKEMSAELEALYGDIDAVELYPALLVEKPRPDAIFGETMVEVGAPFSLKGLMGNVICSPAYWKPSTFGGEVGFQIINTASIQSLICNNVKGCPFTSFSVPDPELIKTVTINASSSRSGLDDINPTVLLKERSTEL
Procedure: (§1) COX-2 and 5-LOX inhibitory activities were tested using fluorometric COX-2 and 5-LOX inhibitor screening kits (Abcam, UK). These assays are based on the fluorometric detection of Prostaglandin G2 (a product generated by the COX enzyme) or on the fluorometric detection of intermediate generated by the 5-LOX enzyme. The experiments were conducted according to the manufacturers’ instructions.
(§2) For the determination of COX-2 inhibitory activity, tested compounds were dissolved in DMSO (5 mM stock solutions) and then diluted with the same solvent to obtain test solutions. Test solutions were further diluted 5X with COX assay buffer (2 µL of test solution and 8 µL COX assay buffer). […] Solvent control (SC) was prepared by adding 2 µL DMSO and 8 µL COX assay buffer, while sample (S) and enzyme control (EC) were prepared by adding 10 µL of diluted test solution and COX assay buffer, respectively, into assigned wells. For the determination of 5-LOX inhibitory activity, tested compounds were also dissolved in DMSO to prepare stock solutions with the same concentration (5mM), which were then diluted with the same solvent to obtain test solutions. Subsequently, test solutions were added to corresponding wells (2 µL).

[2] = biological target: T2, 5-LOX (Homo sapiens, UniProt P09917); test: Fluorometric 5-LOX inhibitor screening kit; type: biochemical; conditions: mean ± standard error of two measurements; for inhibition at 10 µM: read-out: 5-LOX Percent of Inhibition
T2 construct: purchased Abcam, UK
T2 sequence (P09917 1-674): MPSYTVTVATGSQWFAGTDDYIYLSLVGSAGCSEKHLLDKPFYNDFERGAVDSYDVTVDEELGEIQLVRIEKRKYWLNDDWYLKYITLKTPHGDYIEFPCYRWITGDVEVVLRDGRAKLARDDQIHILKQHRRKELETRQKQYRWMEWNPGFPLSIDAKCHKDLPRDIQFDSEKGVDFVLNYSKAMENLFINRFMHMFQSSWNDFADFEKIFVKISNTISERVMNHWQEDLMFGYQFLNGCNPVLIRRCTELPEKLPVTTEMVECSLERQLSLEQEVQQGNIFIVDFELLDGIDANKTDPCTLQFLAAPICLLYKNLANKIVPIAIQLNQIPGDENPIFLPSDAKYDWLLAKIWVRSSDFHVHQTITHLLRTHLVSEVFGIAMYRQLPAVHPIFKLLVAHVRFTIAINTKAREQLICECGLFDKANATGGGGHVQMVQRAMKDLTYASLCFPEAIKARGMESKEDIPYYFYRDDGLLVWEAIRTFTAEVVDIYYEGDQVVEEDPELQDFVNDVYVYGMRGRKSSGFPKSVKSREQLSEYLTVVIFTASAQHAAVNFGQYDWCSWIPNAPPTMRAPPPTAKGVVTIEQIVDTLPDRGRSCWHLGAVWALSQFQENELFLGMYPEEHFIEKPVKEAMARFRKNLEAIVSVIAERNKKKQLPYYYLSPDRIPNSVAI
Procedure: as §1, §2

[3] = system: carrageenan-induced rat paw edema; test: Carrageenan-induced rat paw edema model; type: in vivo, Wistar albino rats; conditions: for Rat paw thickness: mean ± SD; for inhibition in vivo at 2.5 mg/kg / inhibition in vivo at 5 mg/kg / inhibition in vivo at 10 mg/kg: Rattus norvegicus, po
Procedure: In vivo assessment of anti-inflammatory activity of compounds 1–7 was conducted in the carrageenan-induced rat paw edema model. Inflammation in all rats was induced by an intraplantar injection of […] of 0.5% carrageenan saline in the left hind paw. Two hundred male Wistar albino rats (180–210 g) were divided into seven experimental (n = 168 rats, 8 rats per subgroup) and two control groups (n = 32 rats, 8 rats per subgroup).
Experimental groups involved rats that received compounds 1–7, and they were divided into three subgroups: rats received compounds 1–7 per os in three doses (2.5 mg/kg, 5 mg/kg, and 10 mg/kg) dissolved in 1% DMSO for 60 min before inducing inflammation.
In order to quantify the anti-inflammatory effect, the thickness of the left paw tissue of each rat was measured at the following time intervals: immediately before inducing inflammation (moment 0) and 1, 2, 3, and 4 h (moments 1, 2, 3, and 4) after inflammation. Tissue thickness was measured in the middle of the rat paw using a digital vernier caliper (Aerospace, Beijing, China).

[4] = 2.5 mg/kg per os, 1 h after carrageenan
[5] = 2.5 mg/kg per os, 2 h after carrageenan
[6] = 2.5 mg/kg per os, 3 h after carrageenan
[7] = 2.5 mg/kg per os, 4 h after carrageenan
[8] = 5.0 mg/kg per os, 1 h after carrageenan
[9] = 5.0 mg/kg per os, 2 h after carrageenan
[10] = 5.0 mg/kg per os, 3 h after carrageenan
[11] = 5.0 mg/kg per os, 4 h after carrageenan
[12] = 10.0 mg/kg per os, 1 h after carrageenan
[13] = 10.0 mg/kg per os, 2 h after carrageenan
[14] = 10.0 mg/kg per os, 3 h after carrageenan
[15] = 10.0 mg/kg per os, 4 h after carrageenan
[16] = 1 h, 2.5 mg/kg per os, 1 h after carrageenan
[17] = 1 h, 5.0 mg/kg per os, 1 h after carrageenan
[18] = 1 h, 10.0 mg/kg per os, 1 h after carrageenan
[19] = 2 h, 2.5 mg/kg per os, 2 h after carrageenan
[20] = 2 h, 5.0 mg/kg per os, 2 h after carrageenan
[21] = 2 h, 10.0 mg/kg per os, 2 h after carrageenan
[22] = 3 h, 2.5 mg/kg per os, 3 h after carrageenan
[23] = 3 h, 5.0 mg/kg per os, 3 h after carrageenan
[24] = 3 h, 10.0 mg/kg per os, 3 h after carrageenan
[25] = 4 h, 2.5 mg/kg per os, 4 h after carrageenan
[26] = 4 h, 5.0 mg/kg per os, 4 h after carrageenan
[27] = 4 h, 10.0 mg/kg per os, 4 h after carrageenan

SMILES: CCOc1ccc(NC(=S)NC(=O)[C@@H](C)c2ccc3cc(OC)ccc3c2)cc1 [Compound 3, (S)-N-((4-ethoxyphenyl)carbamothioyl)-2-(6-methoxynaphthalen-2-yl)propanamide]
- inhibition at 10 µM [1]: 23.4 ± 0.57%
- inhibition at 10 µM [2]: 47 ± 4.32%
- IC50 [2]: 9.52 ± 1.51 µM
- Rat paw thickness [3, 4]: 6.25 ± 0.21 mm
- Rat paw thickness [3, 5]: 6.0 ± 0.57 mm
- Rat paw thickness [3, 6]: 5.50 ± 0.42 mm
- Rat paw thickness [3, 7]: 5.10 ± 0.14 mm
- Rat paw thickness [3, 8]: 6.40 ± 0.79 mm
- Rat paw thickness [3, 9]: 5.73 ± 0.38 mm
- Rat paw thickness [3, 10]: 5.44 ± 0.28 mm
- Rat paw thickness [3, 11]: 4.97 ± 0.42 mm
- Rat paw thickness [3, 12]: 6.23 ± 0.25 mm
- Rat paw thickness [3, 13]: 5.80 ± 0.26 mm
- Rat paw thickness [3, 14]: 5.27 ± 0.15 mm
- Rat paw thickness [3, 15]: 4.67 ± 0.38 mm
- inhibition in vivo at 2.5 mg/kg [3, 16]: 19.6%
- inhibition in vivo at 5 mg/kg [3, 17]: 6.53%
- inhibition in vivo at 10 mg/kg [3, 18]: 3.78%
- inhibition in vivo at 2.5 mg/kg [3, 19]: 21.8%
- inhibition in vivo at 5 mg/kg [3, 20]: 26.4%
- inhibition in vivo at 10 mg/kg [3, 21]: 12.6%
- inhibition in vivo at 2.5 mg/kg [3, 22]: 34.2%
- inhibition in vivo at 5 mg/kg [3, 23]: 28.6%
- inhibition in vivo at 10 mg/kg [3, 24]: 25.1%
- inhibition in vivo at 2.5 mg/kg [3, 25]: 44.7%
- inhibition in vivo at 5 mg/kg [3, 26]: 42.5%
- inhibition in vivo at 10 mg/kg [3, 27]: 47 to 54%

SMILES: COc1ccc2cc([C@H](C)C(=O)NC(=S)Nc3ccc(F)cc3)ccc2c1 [Compound 1, (S)-N-((4-fluorophenyl)carbamothioyl)-2-(6-methoxynaphthalen-2-yl)propanamide]
- inhibition at 10 µM [1]: 24.7 ± 1.11%
- inhibition at 10 µM [2]: 34.2 ± 1.04%
- IC50 [2]: 19.2 ± 0.96 µM
- Rat paw thickness [3, 4]: 6.50 ± 0.40 mm
- Rat paw thickness [3, 5]: 6.50 ± 0.40 mm
- Rat paw thickness [3, 6]: 6.20 ± 0.30 mm
- Rat paw thickness [3, 7]: 5.53 ± 0.29 mm
- Rat paw thickness [3, 8]: 7.00 ± 0.10 mm
- Rat paw thickness [3, 9]: 6.50 ± 0.17 mm
- Rat paw thickness [3, 10]: 5.8 ± 0.20 mm
- Rat paw thickness [3, 11]: 5.27 ± 0.29 mm
- Rat paw thickness [3, 12]: 7.03 ± 0.12 mm
- Rat paw thickness [3, 13]: 6.60 ± 0.10 mm
- Rat paw thickness [3, 14]: 6.10 ± 0.17 mm
- Rat paw thickness [3, 15]: 5.27 ± 0.50 mm
- inhibition in vivo at 2.5 mg/kg [3, 16]: 20.3%
- inhibition in vivo at 5 mg/kg [3, 17]: -7.22%
- inhibition in vivo at 10 mg/kg [3, 18]: -5.84%
- inhibition in vivo at 2.5 mg/kg [3, 19]: 11.1%
- inhibition in vivo at 5 mg/kg [3, 20]: 3.45%
- inhibition in vivo at 10 mg/kg [3, 21]: 1.92%
- inhibition in vivo at 2.5 mg/kg [3, 22]: 10.5%
- inhibition in vivo at 5 mg/kg [3, 23]: 23.3%
- inhibition in vivo at 10 mg/kg [3, 24]: 10.5%
- inhibition in vivo at 2.5 mg/kg [3, 25]: 33.3%
- inhibition in vivo at 5 mg/kg [3, 26]: 40.2%
- inhibition in vivo at 10 mg/kg [3, 27]: 44.8%

SMILES: COc1ccc2cc([C@H](C)C(=O)NC(=S)Nc3ccc(C(C)=O)cc3)ccc2c1 [Compound 5, (S)-N-((4-acetylphenyl)carbamothioyl)-2-(6-methoxynaphthalen-2-yl)propanamide]
- inhibition at 10 µM [1]: 19.6 ± 4.55%
- inhibition at 10 µM [2]: 46.2 ± 4.87%
- IC50 [2]: 16.7 ± 1.79 µM
- Rat paw thickness [3, 4]: 5.73 ± 0.12 mm
- Rat paw thickness [3, 5]: 5.37 ± 0.25 mm
- Rat paw thickness [3, 6]: 5.20 ± 0.20 mm
- Rat paw thickness [3, 7]: 4.57 ± 0.15 mm
- Rat paw thickness [3, 8]: 5.05 ± 0.07 mm
- Rat paw thickness [3, 9]: 4.85 ± 0.07 mm
- Rat paw thickness [3, 10]: 4.40 ± 0.14 mm
- Rat paw thickness [3, 11]: 3.95 ± 0.07 mm
- Rat paw thickness [3, 12]: 5.5 ± 0.71 mm
- Rat paw thickness [3, 13]: 5.35 ± 0.64 mm
- Rat paw thickness [3, 15]: 4.75 ± 0.49 mm
- inhibition in vivo at 2.5 mg/kg [3, 16]: 10.7%
- inhibition in vivo at 5 mg/kg [3, 17]: 19.6%
- inhibition in vivo at 10 mg/kg [3, 18]: 38.1%
- inhibition in vivo at 2.5 mg/kg [3, 19]: 17.2%
- inhibition in vivo at 5 mg/kg [3, 20]: 19.5%
- inhibition in vivo at 10 mg/kg [3, 21]: 37.9%
- inhibition in vivo at 2.5 mg/kg [3, 22]: 10.5%
- inhibition in vivo at 5 mg/kg [3, 23]: 28.8%
- inhibition in vivo at 10 mg/kg [3, 24]: 39.7%
- inhibition in vivo at 2.5 mg/kg [3, 25]: 31%
- inhibition in vivo at 5 mg/kg [3, 26]: 41.4%
- inhibition in vivo at 10 mg/kg [3, 27]: 47 to 54%
